In patent publication EP1541694A1, “Methods of identifying, selecting and/or characterizing compounds which modulate the activity of a Src family kinase” (Sirenade Pharmaceuticals AG, priority 2003, dated 2005):

What was measured:
[1] = tested on: Src-TQ/YF expressing ZM170 cell lines; assay: Suppression of tet-induced phenotype changes, evaluated by eye/microscope, normal cell culture plates; type: cell-based, human; settings: adherent, PP1-Chr. and PP2 shown as combination 10µM + 5µM
Experimental: Phenotype changes -tet → +tet were evaluated in 24-well plates (Nunc; cat.no. 143982) under the following several different growth conditions to identify the strongest possible response (Δpt(-tet→+tet)max) 1. full (10% serum containing) growth medium a) without any growth factor supplement (-), b) with epidermal growth factor (EGF; 100ng/ml) (cat.no. 115, Research Diagnostics Inc. (RDI), Flanders, NJ, USA) or c) platelet derived growth factor type BB (PDGF-BB; 30ng/ml) (cat.no. 114b, RDI) or d) hepatocyte growth factor (HGF; 20ng/ml) (RDI, cat.no.300-010), or 2. serum-free medium a) - or b) +EGF or c) +PDGF or d) +HGF. In all cases, cells were first seeded into standard 24-well or 96-well plates (Nunc) in full growth medium. The cell number seeded per well was also varied to identify the most suitable cell densities producing Δpt(-tet→+tet)max. […]
To that end, the test compounds PP1-Chr., PP2 (cat.no. 529573, Calbiochem) and SU6656 (cat.no. 572635, Calbiochem) (see Fig.9p for chemical structures) were individually added to the cells together with tet, and the development of the phenotype changes in the presence of these compounds was monitored subsequently in direct comparison with cells that received no compound or only vehicle (0.2% DMSO) together with tet induction. […]

[2] = tested on: Src-TQ/YF expressing cell line ZM170.21; assay: CTB and ATP cell viability/metabolic activity assays, suppression of tet-induced reduction; type: cell-based, human; settings: ZM170.21 (Src-TQ/YF), 5µM PP2 + 10µM PP1-Chr., 40µM D5, 1µM 17-AAG, 1µM radicicol
Text: To proof the concept of the assay platform according to the invention in a quantitative manner with a highly parallel readout, the following cell viability / metabolic activity assays from Promega according to the manufacturer's protocols: "CellTiter 96 AQueous One Solution Cell Proliferation Assay (MTS)", CellTiter-BlueTM Cell Viability Assay (CTB), and the ATP-status assay "CellTiter-Glo Luminescent Cell Viability Assay" (ATP) were used to obtain quantitative values reflecting (aspects of) the phenotype changes. The cells were seeded into white-walled/ clear bottom 96-well plates ["MICROTEST" by Falcon, cat.no. 353947] for MTS and ATP assays and in black-walled/ clear bottom 96-well plates ["MICROTEST" by Falcon, cat.no. 353948] for the CTB assay at the appropriate densities. Tet and/or compound addition (where applicable) was started the next day. Measurements were taken 1,2 and 3 days later using the Wallac Victor^2TM multilabel plate reader (Perkin Elmer). Absorbance was measured at 490nm (MTS). Luminescence mode was used for the ATP assay. For CTB fluorescence excitation wavelength was 550nm (filter: 550(20)nm), emission wavelength was 590 nm (filter: 590(20)nm). Indicated are the means of sixplicate determinations (from 6 independent wells) in the absence of tet (mean(-tet)) and in the presence of tet (mean(+tet)), followed by the respective corresponding standard deviations SD(-tet) and SD(+tet). The cell viability/ metabolic activity upon tet-induction in relation to the cell viability/ metabolic activity without tet ("+/tet(means") is calculated from the quotient of the means of the measured cell viability/ metabolic activity signals from i) cells incubated without tet and ii) cells incubated with tet. […] Furthermore indicated are the corresponding Z' values. In the present context: Z'=1-(3(SD(+tet)+SD(-tet))/ |mean(+tet)-mean(-tet)|. […] SD=0) (Zhang et al., 1999). Z'≥0 is required for an assay useful for a screening approach; a Z'≥0.5 is considered excellent for an assay with regard to high throughput screening. […] Three more parameters reflecting the effects of compounds on cell viability/metabolic activity in these assays are indicated in Tab.3 and Tab.4: Toxicity reflects the nonspecific (i.e. irrespective of tet-induced Src/ Src mutant expression) effects of a compound on the viability/ metabolic activity of the cells. It is calculated as toxicity=1-mean(-tet, compound)/mean(-tet,(DMSO)). […] The suppression value quantifies the potency of a compound with respect to suppression of the tet-induced change in cell viability / metabolic activity. Usually, tet-induction reduces cell viability / metabolic activity due to Src activity and addition of a Src inhibitory compound mitigates this reduction. A suppression of 100% means that the compound totally suppresses the tet-induced decrease in cell viability / metabolic activity (as in the absence of tet). The following formula is employed: Suppres-sion=([…]). Finally, the corresponding Z' value is calculated as follows: Z'(suppression)=1- 3([…]). The factor Qtox corrects the means and SD determined in the absence of a compound for the (nonspecific) toxicity effect of the respective compound, which would otherwise overlay and obscure the specific suppression, if toxicity is not neglectable. […] On each day 4 measurements are taken (1, 2, 3 and 4 h after the addition of the CTB assay reagents). […]

`CC(C)(C)n1nc(-c2ccc(Cl)cc2)c2c(N)ncnc21` [PP2] was tested, and the “suppression of tet-induced phenotype changes” value [1] was “ineffective” and the “suppression of the +/-tet(means)-values” [2] was “did not significantly suppress”.
